Assay [1] addresses S1P1 human receptor (Homo sapiens (Human), UniProt P21453). Briefly: S1P1 [35S]-GTPgamaS binding assay (agonist activity). Format: biochemical. The settings on record: for EC50: GTPgamaS binding, agonist; for EC50S1P1/EC50S1P: potency at S1P1 relative to S1P; for Efficacy (% of maximum): S1P1, relative to reference agonist S1P. The method, then: Selected Compounds of the Examples were evaluated at Millipore Corporation, USA, using S1P1 receptor; [^35S]-GTPgamaS binding assay. A [^35S]-GTPgamaS binding assay at Millipore was conducted by GPCR Profiler™ Custom Service Laboratory, Temecula, Calif., Millipore, Inc. to monitor dose-dependent agonist selectivity for selected Examples against the S1P1 receptors. The assay was completed with sample compounds subjected to an eight-point, four-fold dose response curve with starting concentration of 10 μM. Selectivity was determined upon initial addition of compounds followed by a 30 minute incubation at 30° C. Following compound incubation, bounded [^35S]-GTPgamaS was determined by filtration and scintillation counting.
Independently, selected compounds were evaluated for S1P1 and S1P3 agonistic activity. The S1P1 assay system was GTPgama-S35 binding in membranes from CHO K1 cells, expressing S1P1 human receptor. The S1P3 assay system was calcium mobilization in CHO K1 cells expressing S1P3 human receptor. […] Compounds were tested initially at a concentration of 10 μM.

For assay [2], the system named is Human promyelocytic leukemia (HL-60) cells. Briefly: Cell viability (growth inhibition) assay, MTS. Format: cell-based. Particulars: 50% reduction in cell viability of HL-60 cells, 48 hr incubation. The method, then:
In order to measure the apoptotic effect of compounds on the metabolic activity of viable cells, the following assay was performed on Human promyelocytic leukemia cells. The assay utilises the tetrazolium compound (3-(4,5-dimethylthiazol-2-yl)-5-(3-carboxymethoxyphenyl)-2-(4-sulfophenyl)-2H-tetrazolium, inner salt; (MTS) and an electron coupling reagent (phenazine methosulfate; (PMS). MTS is bioreduced by cells into a formazan product the optical absorbance of which is measured directly from 96 well assay plates. The conversion of MTS into aqueous, soluble formazan is accomplished by dehydrogenase enzymes found in metabolically active cells. The quantity of formazan product as measured by the amount of 490 nm absorbance is directly proportional to the number of living cells in culture.
The assay was based on the National Cancer Institute (NCI) protocol, briefly, cells were grown in RPMI 1640 media supplemented with 10% FCS (foetal calf serum) and kept at 37° C. in a humidified environment with 5% CO2.
For the growth inhibition assay, Human promyelocytic leukemia (HL-60) cells were seeded at a density of 10,000 cells per well in 96 well plates in a volume of 100 μl and allowed to grow for 24 h. Compounds were serially diluted in DMSO at concentrations 100 fold higher than used in the assay (100×). Compounds were freshly prepared for each experiment. The 100× stocks were then diluted to 2× stocks into media and immediately, 100 μl of this 2× stock was added to the cells to create the desired final concentration of drug with a DMSO concentration of 1%. One row of each 96 well plate was treated with DMSO alone as a control. Cells were then incubated for a further 48 hr. Metabolic activity was determined using MTS (Promega) (90% 1.6 mg/ml MTS, 10% 1.6 mg/ml PMS (phenazine methosulfate) made fresh in PBS). 50 μl of this mix was added to all wells of the plates and allowed to incubate for 1.5-2 hr. Plates were shaken gently for about 15 min and absorbance was read on a plate reader at 490 nm. Averages were taken of the readings at each point with standard deviation and plotted using MicroCal Origin.

Counter-ions that a name gives are not always drawn. Where only a bound is given, the exact number is not on record here.

Experimental findings from patent US9181182B2, “S1P receptors modulators” (Akaal Pharma PTY LTD, priority 2008, dated 2015) are described below.

One may read the EC50 as the concentration giving half of the maximal effect. A low value points to a more potent agent. The term IC50 denotes the concentration at which inhibition is half-maximal. Higher therefore signals weaker potency in that assay.

Chain of S1P1 human receptor (P21453 whole entry): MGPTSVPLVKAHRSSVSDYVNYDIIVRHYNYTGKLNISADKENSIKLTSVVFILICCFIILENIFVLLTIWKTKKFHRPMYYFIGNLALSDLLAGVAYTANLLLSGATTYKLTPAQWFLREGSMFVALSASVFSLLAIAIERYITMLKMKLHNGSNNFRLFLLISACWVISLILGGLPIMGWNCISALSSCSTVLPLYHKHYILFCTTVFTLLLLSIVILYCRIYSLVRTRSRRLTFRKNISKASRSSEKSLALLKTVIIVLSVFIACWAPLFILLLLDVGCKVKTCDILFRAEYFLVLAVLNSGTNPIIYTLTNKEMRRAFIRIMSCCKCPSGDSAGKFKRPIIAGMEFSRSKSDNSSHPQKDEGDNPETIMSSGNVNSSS

Regarding `CC(C)(C)OC(=O)NC(CO)(CO)CN1CCc2c(OCc3cc4c(Cl)cc(Cl)cc4o3)cccc21` [41(b), t-butyl 1-(4-((4,6-dichlorobenzofuran-2-yl)methoxy)indolin-1-yl)-3-hydroxy-2-(hydroxymethyl)propan-2-ylcarbamate], in assay [1], the EC50 was above 29000 nM and the EC50S1P1/EC50S1P is recorded as 3066.24.

In assay [1], `CCCCCCCCc1ccc(NCC(N)(CO)CO)cc1` [Example 1, 2-Amino-2-((4-octylphenylamino)methyl)propane-1,3-diol] returned an EC50 above 25000 nM and an EC50S1P1/EC50S1P above 9259.

In assay [2] (Homo sapiens), `CCCCCCCCc1ccc2c(ccn2CC(N)(CO)CO)c1` [Example 4, 2-Amino-2-((5-octyl-1H-indol-1-yl)methyl)propane-1,3-diol] showed an IC50 of 3580 ± 40 nM.

On to `CCCCCCCCc1ccc2c(c1)C(=O)C(=O)N2CC(N)(CO)CO` [Example 5, 1-(2-Amino-3-hydroxy-2-(hydroxymethyl)propyl)-5-octylindoline-2,3-dione], for which the IC50 in assay [2] (Homo sapiens) was 5720 ± 2180 nM.

Take `COc1cc(CCc2ccc3c(c2)CCN3CC(N)(CO)CO)cc(OC)c1OC` [Example 6, 2-Amino-2-((5-(3,4,5-trimethoxyphenethyl)indolin-1-yl)methyl)propane-1,3-diol]: the IC50 in assay [2] (Homo sapiens) came out at 44900 ± 8850 nM.

In assay [2] (Homo sapiens), `NC(CO)(CO)CCc1ccc(CCCn2cc(C(=O)C(F)(F)F)c3ccccc32)cc1` [Example 11, 1-(1-(3-(4-(3-amino-4-hydroxy-3-(hydroxymethyl)butyl)phenyl)propyl)-1H-indol-3-yl)-2,2,2-trifluoroethanone] returned an IC50 of 5540 ± 2300 nM.

Consider `Cl.NC(CO)(CO)CCc1ccc(CCc2ccc(C(=O)c3ccc(F)cc3)cc2)cc1` [Example 12, (4-(4-(3-Amino-4-hydroxy-3-(hydroxymethyl)butyl)phenethyl)phenyl)(4-fluorophenyl)methanone hydrochloride salt], for which, in assay [1], the EC50 came to 1820 nM, the “Efficacy (% of maximum)” value is on record as 49% and the EC50S1P1/EC50S1P was determined as 557.

Regarding `COc1ccc2c(C(=O)c3cc(OC)c(OC)c(OC)c3)cn(S(=O)(=O)c3ccc(CCC(N)(CO)CO)cc3)c2c1` [Example 13, (1-(4-(3-Amino-4-hydroxy-3-(hydroxymethyl)butyl)phenylsulfonyl)-6-methoxy-1H-indol-3-yl)(3,4,5-trimethoxyphenyl)methanone], the IC50 in assay [2] (Homo sapiens) turned out to be 440 ± 40 nM.

As to `Cc1ccc(-c2ccc(CCC(N)(CO)CO)cc2)cc1` [Example 18, 2-Amino-2-(2-(4′-methylbiphenyl-4-yl)ethyl)propane-1,3-diol], the IC50 in assay [2] (Homo sapiens) came to 7070 ± 230 nM.

For `COc1cc(CCc2cccc(CCC(N)(CO)CO)c2)cc(OC)c1OC` [Example 21, 2-Amino-2-(3-(3,4,5-trimethoxyphenethyl)phenethyl)propane-1,3-diol], the IC50 in assay [2] (Homo sapiens) was determined as 28500 ± 3210 nM.

For `NC(CO)(CO)CCc1ccc(O)c(C23CC4CC(CC(C4)C2)C3)c1` [Example 22, 2-Amino-2-(3-(admantyl)-4-hydroxyphenethyl)propane-1,3-diol hydrochloride salt], the midpoint of inhibition in assay [2], the IC50, lay at 10500 ± 400 nM.

With `COc1ccc(CCc2ccc(CCC(N)(CO)CO)cc2)cc1C12CC3CC(CC(C3)C1)C2` [Example 26, 2-Amino-2-(4-(3-(1-admantanyl-4-methoxyphenethyl)phenethyl)propane-1,3-diol hydrochloride salt], the IC50 in assay [2] turned out to be 2290 ± 570 nM.

As for `CC(C)Oc1ccc(CCC(N)(CO)CO)cc1C12CC3CC(CC(C3)C1)C2` [Example 28, 2-Amino-2-(3-1-admantanyl-4-isopropoxyphenethyl)propane-1,3-diol hydrochloride salt], in assay [2], the IC50 turned out to be 1560 ± 370 nM.

On to `NC(CO)(CO)CN1CCc2cc(OCc3ccc(-c4ccccc4C(F)(F)F)cc3)ccc2C1` [Example 39, 2-Amino-2-((6-((2′-(trifluoromethyl)biphenyl-4-yl)methoxy)-3,4-dihydroisoquinolin-2(1H)-yl)methyl)propane-1,3-diol], for which, in assay [1], the EC50 was above 3240 nM, the “Efficacy (% of maximum)” value is listed as 117% and the EC50S1P1/EC50S1P was above 1000.

With `CCCOc1ccc(-c2nc(-c3cccc4c3CCN4CC(N)(CO)CO)no2)cc1I` [Example 44, 2-Amino-2-((4-(5-(3-iodo-4-propoxyphenyl)-1,2,4-oxadiazol-3-yl)indolin-1-yl)methyl)propane-1,3-diol], in assay [1], the EC50 was 48.1 nM, the “Efficacy (% of maximum)” value is recorded as 60% and the EC50S1P1/EC50S1P is recorded as 18.24.

As to `CCCOc1ccc(-c2nc(-c3cccc4c3CCN4CC(N)(CO)CO)no2)cc1N` [Example 46, 2-Amino-2-((4-(5-(3-amino-4-propoxyphenyl)-1,2,4-oxadiazol-3-yl)indolin-1-yl)methyl)propane-1,3-diol], in assay [1], the EC50 is 88 nM, the “Efficacy (% of maximum)” value was 94% and the EC50S1P1/EC50S1P was found to be 10.61.

Take `CCCc1ccc(-c2nc(-c3cccc4c3CCN4CC(N)(CO)CO)no2)cc1` [Example 48, 2-Amino-2-((4-(5-(4-propylphenyl)-1,2,4-oxadiazol-3-yl)indolin-1-yl)methyl)propane-1,3-diol]: in assay [1], a half-maximal response (EC50) required 6.7 nM, the “Efficacy (% of maximum)” value is listed as 78% and the EC50S1P1/EC50S1P is 0.14.

With `CC(C)Oc1ccc(-c2nc(-c3ccc4c(c3)CCN4CC(N)(CO)CO)no2)cc1Cl` [Example 51, 2-Amino-2-((5-(5-(3-chloro-4-isopropoxyphenyl)-1,2,4-oxadiazol-3-yl)indolin-1-yl)methyl)propane-1,3-diol], in assay [1], the EC50 came out at 3.5 nM, the “Efficacy (% of maximum)” value was 85% and the EC50S1P1/EC50S1P came out at 0.38.

In the case of `CCCCOc1ccc(-c2nc(-c3ccc4c(c3)CCN4CC(N)(CO)CO)no2)cc1Cl` [Example 52, 2-Amino-2-((5-(5-(4-butoxy-3-chlorophenyl)-1,2,4-oxadiazol-3-yl)indolin-1-yl)methyl)propane-1,3-diol], in assay [1], a half-maximal effect (EC50) was put at 34.5 nM, the “Efficacy (% of maximum)” value is recorded as 62% and the EC50S1P1/EC50S1P is recorded as 3.55.

In the case of `CCCCCOc1ccc(-c2nc(-c3ccc4c(c3)CCN4CC(N)(CO)CO)no2)cc1Cl` [Example 54, 2-Amino-2-((5-(5-(3-chloro-4-(pentyloxy)phenyl)-1,2,4-oxadiazol-3-yl)indolin-1-yl)methyl)propane-1,3-diol], in assay [1], a half-maximal response (EC50) required 43.8 nM, the “Efficacy (% of maximum)” value was found to be 73% and the EC50S1P1/EC50S1P turned out to be 5.93.

Consider `CCOc1ccc(-c2nc(-c3cccc4c3CCN4CC(N)(CO)CO)no2)cc1OC` [Example 55, 2-Amino-2-((4-(5-(4-ethoxy-3-methoxyphenyl)-1,2,4-oxadiazol-3-yl)indolin-1-yl)methyl)propane-1,3-diol], for which, in assay [1], the EC50 is 31.6 nM, the “Efficacy (% of maximum)” value is reported as 101% and the EC50S1P1/EC50S1P is on record as 2.56.

In the case of `CCCOc1ccc(-c2nc(-c3ccc4c(c3)CCN4CC(N)(CO)CO)no2)cc1Br` [Example 56, 2-Amino-2-((5-(5-(3-bromo-4-propoxyphenyl)-1,2,4-oxadiazol-3-yl)indolin-1-yl)methyl)propane-1,3-diol], in assay [1], the EC50 stood at 2.9 nM, the “Efficacy (% of maximum)” value turned out to be 79% and the EC50S1P1/EC50S1P turned out to be 0.29.

In the case of `NC(CO)(CO)CN1CCc2cc(CCc3ccc(-c4ccccc4C(F)(F)F)cc3)ccc21` [Example 59, 2-Amino-2-((5-(2-(2′-(trifluoromethyl)biphenyl-4-yl)ethyl)indolin-1-yl)methyl)propane-1,3-diol], in assay [1], the EC50 was above 2130 nM and the EC50S1P1/EC50S1P is above 1000.
